{
  "source": "paper PMC12211128",
  "about": "“Safety, tolerability, pharmacokinetic and pharmacodynamic effects of the muscarinic M1 positive allosteric modulator VU0467319 for Alzheimer’s disease: a single ascending-dose study in healthy participants” (Alzheimer's Research & Therapy, 2025)",
  "test_system": "healthy participants",
  "experiment": "12-lead ECG / QTcF and concentration/QT analysis",
  "format": "in vivo, human",
  "details": "for QTcF: mean (SD)",
  "protocol": "Safety and tolerability were assessed throughout the study via treatment emergent adverse event (TEAE) monitoring, vital signs (blood pressure, pulse rate, respiration rate, oral temperature), physical examinations, 12-lead ECGs, and clinical laboratory parameters including complete blood count (CBC), coagulation, hematology, clinical chemistry assessments, and urinalysis. Safety laboratory tests were drawn at pre-dose and at 5, 24, 36 and 144-hours post-dose for 60–400 mg Cohorts; and at 24, 48, 72 and 144-hours post-dose for the 600 mg and Food Effect Cohort. ECG assessments were conducted at pre-dose and at 1, 2, 3, 5, 9, 24, 36 and 144-hours post-dose for 60–400 mg Cohorts; and at 2, 3, 5, 9, 24, 36, 72 and 144-hours post-dose for the 600 mg and Food Effect Cohort. All adverse events (AEs) were assessed by the investigator for severity and relationship to study medication or study procedures.\nAll AEs were coded using the Medical Dictionary for Regulatory Activities (MedDRA) version 22.0. All AEs were listed, and the emergence of TEAEs were categorized by body system affected and analyzed to determine whether they were related to treatment. Analysis of TEAEs for VU319 vs. Placebo were completed using Fisher’s Exact Test. Assessment of the grade of toxicity or relation to the study drug for each adverse event was determined by the Investigator. Changes in vital signs, physical examination, and laboratory tests were collected. Changes in vital signs from pre-dose to 48 h post-dose were placed into 10-time bins and assessed using mixed-measures ANOVA with the time bins as the within-subjects factor and dose as the between-subjects factor. To assess changes is QT analyses with respect to VU319 concentration, we calculated the maximal change in QTcF from baseline for each participant. We assessed the relationship between these maximal changes from baseline with the participant’s Cmax using Pearson correlations. Outlier QTcF values (> 450 ms) were also assessed against PK concentrations to examine it there was any relationship using Pearson correlations. Analyses of safety data was completed by SAS version 9.4.",
  "note": "Marks after values point to notes of the source that are not given here.",
  "data": [
    {"smiles": "Cn1cc2c(-c3cc(F)c(CN4Cc5ncccc5C4=O)c(F)c3)cccc2n1", "note": "[VU319]", "values": [
      {"measurement": "QTcF", "setting": "Food effect study, 120 mg Fasted, +2 hour", "value": "405.0 (22.7)"},
      {"measurement": "QTcF", "setting": "Food effect study, 120 mg Fasted, +3 hour", "value": "405.9 (19.13)"},
      {"measurement": "QTcF", "setting": "Food effect study, 120 mg Fasted, +5 hour", "value": "406.4 (18.05)"},
      {"measurement": "QTcF", "setting": "Food effect study, 120 mg Fasted, +9 hour", "value": "405.5 (14.4)"},
      {"measurement": "QTcF", "setting": "Food effect study, 120 mg Fasted, +24 hour", "value": "401.2 (19.21)"},
      {"measurement": "QTcF", "setting": "Food effect study, 120 mg Fasted, +36 hour", "value": "405.2 (23.74)"},
      {"measurement": "QTcF", "setting": "Food effect study, 120 mg Fasted, +72 hour", "value": "403.2 (16.39)"},
      {"measurement": "QTcF", "setting": "Food effect study, 120 mg Fasted, +144 hour", "value": "405.1 (19.72)"},
      {"measurement": "QTcF", "setting": "Food effect study, 120 mg Fasted, Baseline", "value": "408.9 (20.1)"},
      {"measurement": "QTcF", "setting": "Food effect study, 120 mg Fed, +2 hour", "value": "399.2 (19.09)"},
      {"measurement": "QTcF", "setting": "Food effect study, 120 mg Fed, +3 hour", "value": "402.3 (24.08)"},
      {"measurement": "QTcF", "setting": "Food effect study, 120 mg Fed, +5 hour", "value": "405.0 (16.01)"},
      {"measurement": "QTcF", "setting": "Food effect study, 120 mg Fed, +9 hour", "value": "402.5 (19.51)"},
      {"measurement": "QTcF", "setting": "Food effect study, 120 mg Fed, +24 hour", "value": "403.0 (16.89)"},
      {"measurement": "QTcF", "setting": "Food effect study, 120 mg Fed, +36 hour", "value": "399.5 (21.91)"},
      {"measurement": "QTcF", "setting": "Food effect study, 120 mg Fed, +72 hour, n = 9, in ms", "value": "402.7 (17.38)^#"},
      {"measurement": "QTcF", "setting": "Food effect study, 120 mg Fed, +144 hour", "value": "403.6 (24.86)"},
      {"measurement": "QTcF", "setting": "Food effect study, 120 mg Fed, Baseline", "value": "406.7 (21.7)"},
      {"measurement": "QT intervals, effect of dose", "setting": "SAD study", "value": "no significant dose-by-time interactions or main effects of dose group"},
      {"measurement": "QTcF", "setting": "SAD study, 60 mg, +1 hour", "value": "411.0 (11.82)"},
      {"measurement": "QTcF", "setting": "SAD study, 60 mg, +2 hour", "value": "414.8 (18.13)"},
      {"measurement": "QTcF", "setting": "SAD study, 60 mg, +3 hour", "value": "412.8 (23.01)"},
      {"measurement": "QTcF", "setting": "SAD study, 60 mg, +5 hour", "value": "417.2 (19.47)"},
      {"measurement": "QTcF", "setting": "SAD study, 60 mg, +9 hour", "value": "411.3 (21.31)"},
      {"measurement": "QTcF", "setting": "SAD study, 60 mg, +24 hour", "value": "408.7 (8.52)"},
      {"measurement": "QTcF", "setting": "SAD study, 60 mg, +36 hour, n = 5", "value": "410.6 (10.5)*"},
      {"measurement": "QTcF", "setting": "SAD study, 60 mg, +144 hour", "value": "415.5 (7.66)"},
      {"measurement": "QTcF", "setting": "SAD study, 60 mg, Baseline", "value": "418.0 (17.1)"},
      {"measurement": "QTcF", "setting": "SAD study, 120 mg, +1 hour", "value": "409.7 (15.34)"},
      {"measurement": "QTcF", "setting": "SAD study, 120 mg, +2 hour", "value": "407.0 (21.02)"},
      {"measurement": "QTcF", "setting": "SAD study, 120 mg, +3 hour", "value": "412.7 (20.02)"},
      {"measurement": "QTcF", "setting": "SAD study, 120 mg, +5 hour", "value": "406.8 (15.5)"},
      {"measurement": "QTcF", "setting": "SAD study, 120 mg, +9 hour", "value": "409.2 (16.68)"},
      {"measurement": "QTcF", "setting": "SAD study, 120 mg, +24 hour", "value": "408.3 (12.64)"},
      {"measurement": "QTcF", "setting": "SAD study, 120 mg, +36 hour", "value": "408.0 (18.17)"},
      {"measurement": "QTcF", "setting": "SAD study, 120 mg, +144 hour", "value": "406.7 (17.95)"},
      {"measurement": "QTcF", "setting": "SAD study, 120 mg, Baseline", "value": "406.0 (12.23)"},
      {"measurement": "QTcF", "setting": "SAD study, 240 mg, +1 hour", "value": "422.7 (22.05)"},
      {"measurement": "QTcF", "setting": "SAD study, 240 mg, +2 hour", "value": "415.5 (28.46)"},
      {"measurement": "QTcF", "setting": "SAD study, 240 mg, +3 hour", "value": "421.7 (19.48)"},
      {"measurement": "QTcF", "setting": "SAD study, 240 mg, +5 hour", "value": "414.8 (24.28)"},
      {"measurement": "QTcF", "setting": "SAD study, 240 mg, +9 hour", "value": "421.0 (15.03)"},
      {"measurement": "QTcF", "setting": "SAD study, 240 mg, +24 hour", "value": "415.2 (16.22)"},
      {"measurement": "QTcF", "setting": "SAD study, 240 mg, +36 hour", "value": "418.2 (24.29)"},
      {"measurement": "QTcF", "setting": "SAD study, 240 mg, +144 hour", "value": "422.8 (12.32)"},
      {"measurement": "QTcF", "setting": "SAD study, 240 mg, Baseline", "value": "426.0 (33.22)"},
      {"measurement": "QTcF", "setting": "SAD study, 400 mg, +1 hour", "value": "405.3 (24.45)"},
      {"measurement": "QTcF", "setting": "SAD study, 400 mg, +2 hour", "value": "405.0 (26.62)"},
      {"measurement": "QTcF", "setting": "SAD study, 400 mg, +3 hour", "value": "405.3 (25.65)"},
      {"measurement": "QTcF", "setting": "SAD study, 400 mg, +5 hour", "value": "405.2 (27.72)"},
      {"measurement": "QTcF", "setting": "SAD study, 400 mg, +9 hour", "value": "400.7 (23.41)"},
      {"measurement": "QTcF", "setting": "SAD study, 400 mg, +24 hour", "value": "400.7 (17.13)"},
      {"measurement": "QTcF", "setting": "SAD study, 400 mg, +36 hour", "value": "404.5 (20.16)"},
      {"measurement": "QTcF", "setting": "SAD study, 400 mg, +144 hour", "value": "410.5 (10.21)"},
      {"measurement": "QTcF", "setting": "SAD study, 400 mg, Baseline", "value": "401.8 (24.13)"},
      {"measurement": "QTcF", "setting": "SAD study, 600 mg, +2 hour", "value": "419.7 (27.65)"},
      {"measurement": "QTcF", "setting": "SAD study, 600 mg, +3 hour", "value": "419.5 (31.48)"},
      {"measurement": "QTcF", "setting": "SAD study, 600 mg, +5 hour", "value": "413.8 (23.37)"},
      {"measurement": "QTcF", "setting": "SAD study, 600 mg, +9 hour", "value": "413.8 (26.54)"},
      {"measurement": "QTcF", "setting": "SAD study, 600 mg, +24 hour", "value": "408.0 (17.38)"},
      {"measurement": "QTcF", "setting": "SAD study, 600 mg, +36 hour", "value": "418.2 (24.79)"},
      {"measurement": "QTcF", "setting": "SAD study, 600 mg, +72 hour", "value": "413.3 (19.22)"},
      {"measurement": "QTcF", "setting": "SAD study, 600 mg, +144 hour", "value": "415.7 (23.99)"},
      {"measurement": "QTcF", "setting": "SAD study, 600 mg, Baseline", "value": "416.0 (25.35)"},
      {"measurement": "relationship between change in QTcF from baseline and Cmax", "setting": "SAD study, p > 0.6", "value": "did not show a significant relationship"},
      {"measurement": "relationship between change in QTcF from baseline and Cmax", "setting": "food effect study, Fasted p > 0.4, Fed p > 0.5", "value": "did not show a significant relationship"}
    ]}
  ]
}
